# From patent publication US12534444B2, “Treatment of cancer/inhibition of metastasis” (Celex Oncology Innovations Limited, priority 2010, dated 2026)
# System: MDA-MB-231 cells
# Experiment: Single-cell adhesion assay (SCAMA, detachment negative pressure)
# Format: cell-based, human
# Settings: 24 hours
# Protocol: FIG. 4 is a schematic illustration of the single-cell adhesion measurement apparatus (SCAMA) first described in the paper by Palmer et al. (2008). Human breast cancer cells from the MDA-MB-231 cell line were plated at a density of 2.5×10^4 cells/ml and left to settle in a cell culture dish 401 for 48 hours prior to measurements. Medium was removed and 2 ml of the drug under study was applied for 10 minutes. Adhesion was measured using a glass micropipette 402 connected to a vacuum pump 403 via plastic tubing 404. The tip of the micropipette was drawn to about 20 μm (range, 17-24 μm) tip diameter. The vacuum pump was used to create negative pressure inside a reservoir 405 so that the negative pressure could be applied to the tip of the micropipette by pressing the thumb to the open end of a sealable T-piece 406. […] The pressure was measured using a digital manometer 409 connected to a computer 410 via a RS232 cable 411. Using a micromanipulator 412, the micropipette 402 was positioned on the periphery of a single cell. […] The negative pressure required to detach the cell was recorded on the computer as a pressure spike. The peak of the spike (“detachment negative pressure” (DNP)) was used as a measure of the cell's adhesiveness. Using this technique, several recordings could be made from a single dish within minutes. […] In order to test for the reversibility of a given effect, the pharmacological agent was washed off, fresh medium was added and the plate was incubated for a further 10 minutes prior to re-measurement. Each treatment was carried out on at least two dishes of cells, at least 100 cells per dish were measured, and the experiment was repeated three times (with corresponding controls). In the single cell adhesion experiments, hypoxia was induced chemically by application of hydrogen peroxide (1-500 μM) for 24 hours.
structure (smiles),measurement,setting,value
OO [hydrogen peroxide],mean detachment negative pressure (ΔDNP versus untreated control),hydrogen peroxide 1 μM,approximately −9%
same,mean detachment negative pressure (ΔDNP versus untreated control),hydrogen peroxide 10 μM,approximately −14%
same,mean detachment negative pressure (ΔDNP versus untreated control),hydrogen peroxide 100 μM,approximately −20%
